From paper PMC7556730 (Chemico-biological interactions, 2020)
Several values for one entry are separate records, joined by “and”; a condition that tells them apart may be missing. Equal values may be shown once. Marks after values point to notes of the source that are not given here.

Experiments:
[1] = tested on: microsomal carboxylesterases (CESs); experiment: Incubations of active microsomes without NADPH; format: in vitro ADME, Sprague Dawley rats; settings: male, Sprague-Dawley, rat, liver microsomes
[2] = tested on: microsomal carboxylesterases (CESs) in rat liver microsomes; experiment: Incubations of active microsomes without NADPH; format: in vitro ADME, Sprague Dawley rats
[3] = tested on: microsomal CESs; experiment: Microsomal inhibition study with the CES inhibitor benzil; format: in vitro ADME, Sprague Dawley rats
[4] = tested on: cytosolic GSTs; experiment: Cytosolic inhibition study with the GST inhibitor ethacrynic acid; format: in vitro ADME, Sprague Dawley rats; settings: for benoxacor depletion in control incubations: ethacrynic acid controls; for percent of benoxacor remaining: 5 minutes
[5] = tested on: hepatic cytochrome P450 enzymes (CYPs) in rat liver microsomes; experiment: Microsomal incubations with benoxacor in the presence of NADPH; format: in vitro ADME, Sprague Dawley rats; settings: for percentage of benoxacor remaining: 0.1 mg/mL protein, 0.5 mM NADPH, 5 μM benoxacor
[6] = tested on: cytochrome P450 enzymes (CYPs); experiment: as above; format: in vitro ADME, Sprague Dawley rats; settings: Sprague-Dawley, rat, liver microsomes
[7] = cited from earlier work
[8] = tested on: glutathione S-transferases (GSTs); experiment: Cytosolic incubations with benoxacor in the presence of GSH; format: in vitro ADME, Sprague Dawley rats; settings: Sprague-Dawley, rat, liver cytosol
[9] = tested on: glutathione S-transferases (GSTs) in rat liver cytosol; experiment: as above; format: in vitro ADME, Sprague Dawley rats; settings: for percentage of benoxacor remaining: 1 mg/mL protein, 5 mM GSH, 5 μM benoxacor

In the case of `CC1COc2ccccc2N1C(=O)C(Cl)Cl` (stereo not shown) [benoxacor, Benoxacor], the microsomal CLint [1] is reported as 150 µL/min/mg, the “enantiomeric fraction (EF)” value ([2]; active female rat microsomes without NADPH, 30 minutes) is reported as 0.47 and the “enantiomeric fraction (EF)” value ([2]; active female rat microsomes without NADPH, initial value) is reported as 0.48. The “enantiomeric fraction (EF)” value ([2]; active male rat microsomes without NADPH, initial value) was 0.48, the “CES Scaled CLint” value ([2]; male rat) was 6.74 mL/min/g liver and the “benoxacor depletion in control incubations” value (“benoxacor depletion” below) ([3]; benzil controls, 5, 50 and 500 nM) was 100±1%. The “depletion of benoxacor in the presence of benzil” value ([3]; male rat liver microsomes without NADPH, 30 minutes, benzil 5 to 500 nM) was “not depleted”, the “percent of benoxacor remaining” value ([3]; male rat liver microsomes without NADPH, 30 minutes, without benzil) was 92±2% and the “benoxacor depletion” value ([4]; 10 μM) was 100±1%. The “benoxacor depletion” value ([4]; 100 μM) was 102±1%, the “benoxacor depletion” value ([4]; 1000 μM) was 100±1% and the “percent of benoxacor remaining” value ([4]; female rat cytosol with GSH, 1000 μM ethacrynic acid) was 98±2%. The “percent of benoxacor remaining” value ([4]; female rat cytosol with GSH, without inhibitor) was 71±3%, the “percent of benoxacor remaining” value ([4]; male rat preparations with GSH, with ethacrynic acid) was 96±2% and the “percent of benoxacor remaining” value ([4]; male rat preparations with GSH, without inhibitor) was 64±1%. The “CYP Scaled CLint” value ([5]; female rat) was 57.80 mL/min/g liver, the “enantiomeric fraction (EF = A1/(A1+A2))” value ([5]; female rat liver microsomes with NADPH, 30 minutes) was 0.67±0.01 and 0.67 and the “enantiomeric fraction (EF = A1/(A1+A2))” value ([5]; female rat liver microsomes with NADPH, start of 30-minute time-course) was 0.48. The “percentage of benoxacor remaining” value ([5]; female rat liver microsomes, 30 minutes) was 48±1%, the “CYP Scaled CLint” value ([5]; male rat) was 50.13 mL/min/g liver and the “enantiomeric fraction (EF = A1/(A1+A2))” value ([5]; male rat liver microsomes with NADPH, 30 minutes) was 0.60±0.01 and 0.60. For the same compound, the “enantiomeric fraction (EF = A1/(A1+A2))” value ([5]; male rat liver microsomes with NADPH, start of 30-minute time-course) was 0.48, the “percentage of benoxacor remaining” value ([5]; male rat liver microsomes, 30 minutes) was 45±1% and the microsomal CLint ([6]; female) was 1280 µL/min/mg. The microsomal CLint ([6]; male) was 1110 µL/min/mg, the experimental solubility [7] was 22 ± 1.7 µg/mL and the microsomal CLint ([8]; female) was 280 µL/min/mg. For the same compound, the microsomal CLint ([8]; male) was 440 µL/min/mg, the “enantiomeric fraction (EF)” value ([9]; female rat liver cytosol with GSH, 30 minutes) was 0.54±0.01 and the “enantiomeric fraction (EF)” value ([9]; female rat liver cytosol with GSH, start of 30-minute time-course) was 0.48. The “percentage of benoxacor remaining” value ([9]; female rat liver cytosol, 30 minutes) was 18±2%, the “GST Scaled CLint” value ([9]; female rat, significantly different from male (p = 0.0038)) was 25.87^a mL/min/g liver and the “GST Scaled CLint” value ([9]; male rat) was 40.18 mL/min/g liver. For the same compound, the “enantiomeric fraction (EF)” value ([9]; male rat liver cytosol with GSH, 30 minutes) was 0.43±0.01 and 0.43, the “enantiomeric fraction (EF)” value ([9]; male rat liver cytosol with GSH, start of 30-minute time-course) was 0.47 and the “percentage of benoxacor remaining” value ([9]; male rat liver cytosol, 30 minutes) was 9±2%.

With `O=C(C(=O)c1ccccc1)c1ccccc1` [benzil, Benzil, reference compound] the “inhibition of the loss of benoxacor by the CES inhibitor” value ([3]; male rat liver microsomes without NADPH, 30 minutes, 5, 50, 500 nM) was “significantly inhibited”.
